Laboratory results published in US12385902B2, “Methods for generating and screening compartmentalised peptide libraries” (UNIVERSITY OF SOUTHAMPTON, priority 2017, dated 2025).
Entries after “also recorded” stand apart in the source; their conditions may differ.

Legend:
[1] = tested on: Alzheimer's protein Δβ42 fused to GFP; settings: Mathis et al., Nature Biomedical Engineering 2017; cited from earlier work
AB42-GFP fusion = molecular target: T1, AB42-GFP fusion (Homo sapiens, UniProt P05067); assay: In vitro expression in microfluidic droplets of AB42-GFP fusion with cyclic peptide; aggregation assay read by FACS green fluorescence; format: biochemical; settings: double emulsion droplets, IVTT 2 h at 37° C., relative to buffer alone, IVTT alone and cyclo-CA5
T1 construct: In vitro expression in microfluidic droplets of AB42-GFP fusion with cyclo-TAFDR; made in house; host or cells: cell-free in vitro transcription/translation (IVTT)
T1 sequence (P05067 672-713 limits assumed): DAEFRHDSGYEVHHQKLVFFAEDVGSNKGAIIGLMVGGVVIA
Protocol: FIG. 17. In vitro expression in microfluidic droplets of AB42-GFP fusion with cyclo-TAFDR (SEQ ID NO: 7) (Matis et al.). Vector CSpDuetNpuHisAB42-GFP was utilised for the cloning of TAFDR (SEQ ID NO: 7) into MCS1. Thereafter, plasmid DNA was encapsulated into agarose droplets alongside isothermal DNA amplification reaction components and incubated overnight. Agarose beads were prepped as previously stated and re-encapsulated together with IVTT. A final emulsification step was performed to yield FACS compatible double emulsions. A negative control vector in the presence of CA5 was likewise constructed to verify cyclo-TAFDR (SEQ ID NO: 7) AB42-GFP aggregation inhibition.
When GFP is produced as an aggregating fusion, its fluorescence is lost; however, when the aggregation is disrupted by TAFDR (SEQ ID NO: 7), the GFP can fluoresce. See Mathis et al., Nature Biomedical Engineering volume 1, pages 838-852 (2017).
We have used the Δβ42 aggregation assay to assess the performance of the system of the invention. This assay has previously been combined with a SICLOPPS screen (Mathis et al.), so cyclo-TAFDR (SEQ ID NO: 7) is a validated positive cyclic peptide control.
Vector CSpDuetNpuHisAB42-GFP was utilised for the cloning of TAFDR (SEQ ID NO: 7) into MCS1. […]

Alzheimer's protein Δβ42 fused to GFP, sequence (P05067 672-713 limits assumed, stated change not applied): as the sequence (P05067 672-713 limits assumed) above

## cyclo-TAFDR (cyclised)
[1]
  inhibition of aggregation of Aβ42 fused to GFP: inhibit aggregation
AB42-GFP fusion
  green fluorescence (GFP) upon cyclic peptide expression, associated with disruption of Aβ aggregation: positive shift in green fluorescence; also recorded: significant increase in fluorescence
